Laboratory results from patent publication US11945813B2, “5-substituted 4-amino-1H-benzo[c][1,2,6]thiadiazine 2,2-dioxides and formulations and uses thereof” (Firmenich Incorporated, priority 2018, dated 2024).

Target: T1, T1R2/T1R3 taste receptor (Homo sapiens, UniProt Q8TE23)
T1 sequence (Q8TE23 20-839): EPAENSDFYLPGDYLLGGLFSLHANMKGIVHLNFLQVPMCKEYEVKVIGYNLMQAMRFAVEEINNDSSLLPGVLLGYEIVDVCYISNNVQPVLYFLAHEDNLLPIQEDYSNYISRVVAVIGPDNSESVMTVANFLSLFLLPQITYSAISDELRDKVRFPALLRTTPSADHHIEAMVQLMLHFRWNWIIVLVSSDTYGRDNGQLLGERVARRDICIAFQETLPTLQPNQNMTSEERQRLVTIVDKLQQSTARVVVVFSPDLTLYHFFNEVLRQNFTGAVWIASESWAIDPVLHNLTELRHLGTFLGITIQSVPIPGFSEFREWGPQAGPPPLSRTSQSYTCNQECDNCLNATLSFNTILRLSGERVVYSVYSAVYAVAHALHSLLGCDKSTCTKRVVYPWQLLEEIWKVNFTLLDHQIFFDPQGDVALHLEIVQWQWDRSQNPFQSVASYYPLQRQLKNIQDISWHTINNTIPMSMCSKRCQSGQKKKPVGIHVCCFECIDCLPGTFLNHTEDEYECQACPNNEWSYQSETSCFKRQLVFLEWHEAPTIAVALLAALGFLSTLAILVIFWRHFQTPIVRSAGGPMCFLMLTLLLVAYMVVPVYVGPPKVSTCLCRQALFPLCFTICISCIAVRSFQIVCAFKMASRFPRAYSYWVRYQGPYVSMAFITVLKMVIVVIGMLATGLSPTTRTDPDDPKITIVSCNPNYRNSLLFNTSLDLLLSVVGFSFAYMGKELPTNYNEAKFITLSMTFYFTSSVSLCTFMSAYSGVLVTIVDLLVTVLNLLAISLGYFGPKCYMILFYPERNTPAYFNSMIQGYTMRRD
T1 sequence (Q7RTX0 21-852 partner): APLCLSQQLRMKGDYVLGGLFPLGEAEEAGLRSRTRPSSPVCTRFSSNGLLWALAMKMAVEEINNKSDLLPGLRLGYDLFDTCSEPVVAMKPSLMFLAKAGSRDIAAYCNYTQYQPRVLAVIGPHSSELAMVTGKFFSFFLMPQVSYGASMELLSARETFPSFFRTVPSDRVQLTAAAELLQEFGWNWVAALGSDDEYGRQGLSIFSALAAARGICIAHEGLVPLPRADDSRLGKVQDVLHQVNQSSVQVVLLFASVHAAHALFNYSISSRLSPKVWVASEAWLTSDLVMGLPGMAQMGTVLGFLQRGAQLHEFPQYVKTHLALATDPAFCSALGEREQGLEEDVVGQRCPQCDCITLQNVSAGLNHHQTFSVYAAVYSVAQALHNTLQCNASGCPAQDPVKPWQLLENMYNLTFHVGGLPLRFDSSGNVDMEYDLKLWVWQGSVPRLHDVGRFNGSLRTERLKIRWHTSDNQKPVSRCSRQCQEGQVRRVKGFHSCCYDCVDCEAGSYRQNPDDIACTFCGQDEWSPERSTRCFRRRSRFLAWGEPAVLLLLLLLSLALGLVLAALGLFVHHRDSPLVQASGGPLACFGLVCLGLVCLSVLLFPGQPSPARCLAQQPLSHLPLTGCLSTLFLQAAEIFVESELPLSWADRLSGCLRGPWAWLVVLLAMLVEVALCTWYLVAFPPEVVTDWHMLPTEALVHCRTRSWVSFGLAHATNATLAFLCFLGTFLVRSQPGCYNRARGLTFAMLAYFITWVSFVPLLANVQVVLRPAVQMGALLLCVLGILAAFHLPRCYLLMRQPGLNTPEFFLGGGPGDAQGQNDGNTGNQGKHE
Experiment: Receptor-based assay: sweetener EC50 alone and with test compound (enhancement ratio)
Format: cell-based
Conditions: for Sucralose Enhancement EC50 Ratio: sweetener sucralose; for Sucrose Enhancement EC50 Ratio: sweetener sucrose; for Fructose Enhancement EC50 Ratio: sweetener fructose
Experimental: Potencies (EC50 values) for the sweeteners sucrose, sucralose, and fructose were measured against the T1R2/T1R3 taste receptor. EC50 was determined using the sweetener alone and in the presence of 3 μM, 10 μM, or 50 μM of test compound. EC50 ratios were calculated by the ratio of potency with and without the test compound. An “A” value indicates an enhancement ratio of greater than 20. A “B” value indicates an enhancement ratio from 10 to 20. A “C” value indicates an enhancement ratio greater than 1 and less than 10.

Row | Compound | Sucralose Enhancement EC50 Ratio (10 μM test compound) | Sucralose Enhancement EC50 Ratio (50 μM test compound) | Sucrose Enhancement EC50 Ratio (3 μM test compound) | Sucrose Enhancement EC50 Ratio (10 μM test compound) | Sucrose Enhancement EC50 Ratio (50 μM test compound) | Fructose Enhancement EC50 Ratio (10 μM test compound) | Fructose Enhancement EC50 Ratio (50 μM test compound)
1 | NC1=NS(=O)(=O)Nc2cccc(OC[C@H]3CCCN(c4cccc(C(=O)NC5CCCCC5)n4)C3)c21 [Compound 409] | A (An “A” value indicates an enhancement ratio of greater than 20) | A (An “A” value indicates an enhancement ratio of greater than 20) | C (A “C” value indicates an enhancement ratio greater than 1 and less than 10) | C (A “C” value indicates an enhancement ratio greater than 1 and less than 10) | B (A “B” value indicates an enhancement ratio from 10 to 20) | – | –
2 | CC(C)(COc1cccc2c1C(N)=NS(=O)(=O)N2)Nc1ccnc(Cl)n1 [Compound 201, 4-amino-5-(2-((2-chloropyrimidin-4-yl)amino)-2-methylpropoxy)-1H-benzo[c][1,2,6]thiadiazine 2,2-dioxide] | – | A (An “A” value indicates an enhancement ratio of greater than 20) | C (A “C” value indicates an enhancement ratio greater than 1 and less than 10) | C (A “C” value indicates an enhancement ratio greater than 1 and less than 10) | C (A “C” value indicates an enhancement ratio greater than 1 and less than 10) | C (A “C” value indicates an enhancement ratio greater than 1 and less than 10) | –
3 | NC1=NS(=O)(=O)Nc2cccc(OC[C@H]3CCCN(c4cccc(C(=O)O)n4)C3)c21 [Compound 301, (S)-6-(3-(((4-amino-2,2-dioxido-1H-benzo[c][1,2,6]thiadiazin-5-yl)oxy)methyl)piperidin-1-yl)picolinic acid] | A (An “A” value indicates an enhancement ratio of greater than 20) | A (An “A” value indicates an enhancement ratio of greater than 20) | C (A “C” value indicates an enhancement ratio greater than 1 and less than 10) | C (A “C” value indicates an enhancement ratio greater than 1 and less than 10) | C (A “C” value indicates an enhancement ratio greater than 1 and less than 10) | – | –
4 | NC1=NS(=O)(=O)Nc2cccc(OC[C@H]3CCCN(c4cccc(C(=O)NCC5CCCCC5)n4)C3)c21 [Compound 418] | B (A “B” value indicates an enhancement ratio from 10 to 20) | A (An “A” value indicates an enhancement ratio of greater than 20) | C (A “C” value indicates an enhancement ratio greater than 1 and less than 10) | C (A “C” value indicates an enhancement ratio greater than 1 and less than 10) | C (A “C” value indicates an enhancement ratio greater than 1 and less than 10) | – | –
5 | NC1=NS(=O)(=O)Nc2cccc(OC[C@H]3CCCN(c4cccc(C(=O)N5CCOCC5)n4)C3)c21 [Compound 414] | A (An “A” value indicates an enhancement ratio of greater than 20) | – | C (A “C” value indicates an enhancement ratio greater than 1 and less than 10) | C (A “C” value indicates an enhancement ratio greater than 1 and less than 10) | B (A “B” value indicates an enhancement ratio from 10 to 20) | C (A “C” value indicates an enhancement ratio greater than 1 and less than 10) | C (A “C” value indicates an enhancement ratio greater than 1 and less than 10)
6 | CCCNC(=O)c1cccc(N2CCC[C@H](COc3cccc4c3C(N)=NS(=O)(=O)N4)C2)n1 [Compound 403] | A (An “A” value indicates an enhancement ratio of greater than 20) | A (An “A” value indicates an enhancement ratio of greater than 20) | C (A “C” value indicates an enhancement ratio greater than 1 and less than 10) | C (A “C” value indicates an enhancement ratio greater than 1 and less than 10) | C (A “C” value indicates an enhancement ratio greater than 1 and less than 10) | C (A “C” value indicates an enhancement ratio greater than 1 and less than 10) | –
